According to ChEMBL document CHEMBL3991601, “The target landscape of clinical kinase drugs” (Science, 2017):
Activity calls are given as the source filed them. Rule as the data show it, for most assays here: actives have a measured Kd and inactives only a lower limit.

Tests used:
[1] = molecular target: Casein kinase I isoform alpha (Homo sapiens, UniProt P48729)
[2] = molecular target: T1, Serine/threonine-protein kinase D3 (Homo sapiens, UniProt O94806)
T1 sequence (O94806 whole entry): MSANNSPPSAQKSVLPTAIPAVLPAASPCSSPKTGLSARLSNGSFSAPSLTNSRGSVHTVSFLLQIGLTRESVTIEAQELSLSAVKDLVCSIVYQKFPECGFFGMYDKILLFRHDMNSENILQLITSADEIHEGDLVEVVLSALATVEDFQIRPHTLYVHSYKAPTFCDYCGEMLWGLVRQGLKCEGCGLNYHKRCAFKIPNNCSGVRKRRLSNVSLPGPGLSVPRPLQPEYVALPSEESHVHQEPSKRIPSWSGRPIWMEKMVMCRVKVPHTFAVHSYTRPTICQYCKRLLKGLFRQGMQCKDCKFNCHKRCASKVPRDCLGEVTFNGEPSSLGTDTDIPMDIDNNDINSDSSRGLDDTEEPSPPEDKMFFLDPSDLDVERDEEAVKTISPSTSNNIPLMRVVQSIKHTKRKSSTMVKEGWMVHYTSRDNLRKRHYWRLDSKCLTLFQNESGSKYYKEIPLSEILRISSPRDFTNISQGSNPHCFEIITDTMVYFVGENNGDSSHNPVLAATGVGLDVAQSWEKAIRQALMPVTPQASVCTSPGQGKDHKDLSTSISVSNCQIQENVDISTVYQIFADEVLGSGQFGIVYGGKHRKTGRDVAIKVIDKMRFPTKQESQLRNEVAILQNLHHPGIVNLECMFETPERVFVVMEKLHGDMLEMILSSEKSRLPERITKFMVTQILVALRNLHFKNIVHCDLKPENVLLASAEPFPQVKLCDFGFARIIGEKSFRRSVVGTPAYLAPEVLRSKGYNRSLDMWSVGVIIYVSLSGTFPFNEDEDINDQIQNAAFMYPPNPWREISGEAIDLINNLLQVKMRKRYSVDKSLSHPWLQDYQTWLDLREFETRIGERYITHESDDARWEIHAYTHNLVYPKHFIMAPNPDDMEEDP

[3] = molecular target: T2, MAP kinase-activated protein kinase 5 (Homo sapiens, UniProt Q8IW41)
T2 sequence (Q8IW41 whole entry): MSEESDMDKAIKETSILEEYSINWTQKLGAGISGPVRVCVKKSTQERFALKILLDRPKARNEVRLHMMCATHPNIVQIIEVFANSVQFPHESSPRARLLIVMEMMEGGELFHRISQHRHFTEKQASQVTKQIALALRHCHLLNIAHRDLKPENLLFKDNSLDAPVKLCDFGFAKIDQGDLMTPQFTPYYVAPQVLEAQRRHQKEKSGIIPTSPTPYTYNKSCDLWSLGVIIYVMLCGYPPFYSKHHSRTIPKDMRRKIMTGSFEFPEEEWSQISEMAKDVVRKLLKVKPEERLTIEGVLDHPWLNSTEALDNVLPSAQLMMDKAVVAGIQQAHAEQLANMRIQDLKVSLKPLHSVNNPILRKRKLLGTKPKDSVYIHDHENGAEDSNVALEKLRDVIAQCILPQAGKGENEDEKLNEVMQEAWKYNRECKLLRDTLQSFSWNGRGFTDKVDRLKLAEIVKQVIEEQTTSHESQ

[4] = molecular target: Serine/threonine-protein kinase 26 (Homo sapiens, UniProt Q9P289)
[5] = molecular target: Insulin-like growth factor 1 receptor (Homo sapiens, UniProt P08069)
[6] = molecular target: ATP-dependent RNA helicase DDX3X (Homo sapiens, UniProt O00571)
[7] = molecular target: T3, Calcium/calmodulin-dependent protein kinase type IV (Homo sapiens, UniProt Q16566)
T3 sequence (Q16566 whole entry): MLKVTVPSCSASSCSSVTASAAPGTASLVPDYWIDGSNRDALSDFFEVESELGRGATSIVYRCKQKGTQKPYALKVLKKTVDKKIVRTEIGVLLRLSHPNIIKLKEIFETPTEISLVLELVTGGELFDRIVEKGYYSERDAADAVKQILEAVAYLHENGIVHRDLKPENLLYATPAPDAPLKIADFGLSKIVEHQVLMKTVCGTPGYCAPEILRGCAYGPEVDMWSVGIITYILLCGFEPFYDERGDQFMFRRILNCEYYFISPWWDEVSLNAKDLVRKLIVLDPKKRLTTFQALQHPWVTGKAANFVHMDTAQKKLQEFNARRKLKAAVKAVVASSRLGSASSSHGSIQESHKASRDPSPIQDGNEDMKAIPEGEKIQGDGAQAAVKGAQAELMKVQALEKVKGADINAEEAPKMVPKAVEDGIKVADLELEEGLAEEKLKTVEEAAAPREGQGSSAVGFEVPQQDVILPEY

[8] = molecular target: Tyrosine-protein kinase Fer (Homo sapiens, UniProt P16591)
[9] = molecular target: Mitogen-activated protein kinase kinase kinase kinase 5 (Homo sapiens, UniProt Q9Y4K4)
Pyridoxal kinase = molecular target: T4, Pyridoxal kinase (Homo sapiens, UniProt O00764)
T4 sequence (O00764 whole entry): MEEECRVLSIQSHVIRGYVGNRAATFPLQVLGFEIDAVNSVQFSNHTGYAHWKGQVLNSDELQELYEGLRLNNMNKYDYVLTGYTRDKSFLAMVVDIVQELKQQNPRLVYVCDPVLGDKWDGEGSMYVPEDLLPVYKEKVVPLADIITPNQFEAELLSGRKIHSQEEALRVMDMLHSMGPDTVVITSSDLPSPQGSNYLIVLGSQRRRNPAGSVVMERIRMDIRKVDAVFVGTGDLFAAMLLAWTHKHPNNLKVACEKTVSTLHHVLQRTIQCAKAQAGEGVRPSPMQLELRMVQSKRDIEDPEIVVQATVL

[10] = molecular target: Chromodomain-helicase-DNA-binding protein 4 (Homo sapiens, UniProt Q14839)
Adenosine kinase = Adenosine kinase (Homo sapiens, UniProt P55263)
[11] = molecular target: Serine/threonine-protein kinase PAK 4 (Homo sapiens, UniProt O96013)
[12] = molecular target: Tyrosine-protein kinase BTK (Homo sapiens, UniProt Q06187)
[13] = molecular target: Tyrosine-protein kinase FRK (Homo sapiens, UniProt P42685)
Also: in the data inactive means no Kd found up to 30 µM.

Chain of ATP-dependent RNA helicase DDX3X (O00571 whole entry): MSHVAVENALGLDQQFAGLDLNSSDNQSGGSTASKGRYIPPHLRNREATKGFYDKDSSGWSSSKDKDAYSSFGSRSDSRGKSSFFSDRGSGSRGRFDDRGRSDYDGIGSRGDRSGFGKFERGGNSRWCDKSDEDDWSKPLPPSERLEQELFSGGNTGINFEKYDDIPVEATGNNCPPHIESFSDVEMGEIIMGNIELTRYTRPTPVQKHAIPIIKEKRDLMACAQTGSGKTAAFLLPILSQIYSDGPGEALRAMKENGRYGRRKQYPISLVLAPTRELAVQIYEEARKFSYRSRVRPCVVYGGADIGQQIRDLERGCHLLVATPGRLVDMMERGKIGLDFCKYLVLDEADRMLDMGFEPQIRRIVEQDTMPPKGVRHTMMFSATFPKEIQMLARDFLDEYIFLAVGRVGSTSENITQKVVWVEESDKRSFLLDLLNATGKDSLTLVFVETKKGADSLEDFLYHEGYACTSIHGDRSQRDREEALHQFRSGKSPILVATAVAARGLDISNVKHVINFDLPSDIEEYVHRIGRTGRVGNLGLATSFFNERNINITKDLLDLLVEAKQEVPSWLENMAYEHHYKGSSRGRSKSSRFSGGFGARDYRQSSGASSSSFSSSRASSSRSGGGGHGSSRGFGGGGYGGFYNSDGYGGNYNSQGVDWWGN
Chain of Casein kinase I isoform alpha (P48729 whole entry, canonical isoform): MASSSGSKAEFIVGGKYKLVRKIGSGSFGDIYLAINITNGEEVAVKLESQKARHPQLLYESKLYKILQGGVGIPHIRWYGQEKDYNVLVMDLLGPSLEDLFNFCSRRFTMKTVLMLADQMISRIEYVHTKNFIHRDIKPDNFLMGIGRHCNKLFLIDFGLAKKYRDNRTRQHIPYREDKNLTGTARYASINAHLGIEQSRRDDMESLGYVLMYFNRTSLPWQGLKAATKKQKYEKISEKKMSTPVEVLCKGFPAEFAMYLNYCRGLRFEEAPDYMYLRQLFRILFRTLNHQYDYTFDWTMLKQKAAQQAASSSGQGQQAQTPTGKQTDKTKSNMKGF
Chain of Serine/threonine-protein kinase PAK 4 (O96013 whole entry): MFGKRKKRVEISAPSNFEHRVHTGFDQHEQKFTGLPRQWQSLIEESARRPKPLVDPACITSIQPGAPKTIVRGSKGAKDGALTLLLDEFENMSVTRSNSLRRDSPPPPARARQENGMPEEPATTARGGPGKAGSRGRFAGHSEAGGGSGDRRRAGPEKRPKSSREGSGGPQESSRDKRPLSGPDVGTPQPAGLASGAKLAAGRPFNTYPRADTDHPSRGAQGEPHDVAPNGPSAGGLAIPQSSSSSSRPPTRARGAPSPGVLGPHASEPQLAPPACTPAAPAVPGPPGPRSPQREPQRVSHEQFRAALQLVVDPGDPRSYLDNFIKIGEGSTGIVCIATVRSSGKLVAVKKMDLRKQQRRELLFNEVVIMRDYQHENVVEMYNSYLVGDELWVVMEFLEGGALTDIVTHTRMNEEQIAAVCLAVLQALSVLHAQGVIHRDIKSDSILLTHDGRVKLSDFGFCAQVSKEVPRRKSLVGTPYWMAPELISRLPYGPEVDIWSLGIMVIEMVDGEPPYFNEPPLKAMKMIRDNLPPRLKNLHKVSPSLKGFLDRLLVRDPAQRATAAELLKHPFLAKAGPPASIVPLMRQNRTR
Chain of Tyrosine-protein kinase Fer (P16591 whole entry): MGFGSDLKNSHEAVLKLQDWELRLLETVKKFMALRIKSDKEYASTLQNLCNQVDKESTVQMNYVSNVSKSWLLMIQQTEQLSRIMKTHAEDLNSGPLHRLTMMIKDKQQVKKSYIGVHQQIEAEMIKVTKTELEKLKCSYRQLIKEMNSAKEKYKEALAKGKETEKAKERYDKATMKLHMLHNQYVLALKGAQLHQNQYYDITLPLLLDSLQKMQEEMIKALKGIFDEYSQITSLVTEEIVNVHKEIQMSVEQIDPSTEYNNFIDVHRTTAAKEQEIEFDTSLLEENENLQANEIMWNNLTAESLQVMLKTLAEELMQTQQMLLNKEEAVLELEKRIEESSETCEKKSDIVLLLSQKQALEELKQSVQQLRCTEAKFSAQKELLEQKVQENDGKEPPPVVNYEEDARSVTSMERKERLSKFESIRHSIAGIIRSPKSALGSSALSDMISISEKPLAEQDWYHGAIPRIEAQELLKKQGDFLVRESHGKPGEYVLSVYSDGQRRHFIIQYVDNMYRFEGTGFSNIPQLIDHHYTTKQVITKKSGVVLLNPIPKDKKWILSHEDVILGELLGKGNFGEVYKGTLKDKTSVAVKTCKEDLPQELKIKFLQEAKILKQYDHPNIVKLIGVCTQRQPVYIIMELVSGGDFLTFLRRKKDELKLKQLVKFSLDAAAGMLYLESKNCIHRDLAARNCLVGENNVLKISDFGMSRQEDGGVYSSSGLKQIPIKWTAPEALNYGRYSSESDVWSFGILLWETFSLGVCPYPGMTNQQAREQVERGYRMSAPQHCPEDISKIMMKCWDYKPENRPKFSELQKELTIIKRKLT
Chain of Chromodomain-helicase-DNA-binding protein 4 (Q14839 whole entry): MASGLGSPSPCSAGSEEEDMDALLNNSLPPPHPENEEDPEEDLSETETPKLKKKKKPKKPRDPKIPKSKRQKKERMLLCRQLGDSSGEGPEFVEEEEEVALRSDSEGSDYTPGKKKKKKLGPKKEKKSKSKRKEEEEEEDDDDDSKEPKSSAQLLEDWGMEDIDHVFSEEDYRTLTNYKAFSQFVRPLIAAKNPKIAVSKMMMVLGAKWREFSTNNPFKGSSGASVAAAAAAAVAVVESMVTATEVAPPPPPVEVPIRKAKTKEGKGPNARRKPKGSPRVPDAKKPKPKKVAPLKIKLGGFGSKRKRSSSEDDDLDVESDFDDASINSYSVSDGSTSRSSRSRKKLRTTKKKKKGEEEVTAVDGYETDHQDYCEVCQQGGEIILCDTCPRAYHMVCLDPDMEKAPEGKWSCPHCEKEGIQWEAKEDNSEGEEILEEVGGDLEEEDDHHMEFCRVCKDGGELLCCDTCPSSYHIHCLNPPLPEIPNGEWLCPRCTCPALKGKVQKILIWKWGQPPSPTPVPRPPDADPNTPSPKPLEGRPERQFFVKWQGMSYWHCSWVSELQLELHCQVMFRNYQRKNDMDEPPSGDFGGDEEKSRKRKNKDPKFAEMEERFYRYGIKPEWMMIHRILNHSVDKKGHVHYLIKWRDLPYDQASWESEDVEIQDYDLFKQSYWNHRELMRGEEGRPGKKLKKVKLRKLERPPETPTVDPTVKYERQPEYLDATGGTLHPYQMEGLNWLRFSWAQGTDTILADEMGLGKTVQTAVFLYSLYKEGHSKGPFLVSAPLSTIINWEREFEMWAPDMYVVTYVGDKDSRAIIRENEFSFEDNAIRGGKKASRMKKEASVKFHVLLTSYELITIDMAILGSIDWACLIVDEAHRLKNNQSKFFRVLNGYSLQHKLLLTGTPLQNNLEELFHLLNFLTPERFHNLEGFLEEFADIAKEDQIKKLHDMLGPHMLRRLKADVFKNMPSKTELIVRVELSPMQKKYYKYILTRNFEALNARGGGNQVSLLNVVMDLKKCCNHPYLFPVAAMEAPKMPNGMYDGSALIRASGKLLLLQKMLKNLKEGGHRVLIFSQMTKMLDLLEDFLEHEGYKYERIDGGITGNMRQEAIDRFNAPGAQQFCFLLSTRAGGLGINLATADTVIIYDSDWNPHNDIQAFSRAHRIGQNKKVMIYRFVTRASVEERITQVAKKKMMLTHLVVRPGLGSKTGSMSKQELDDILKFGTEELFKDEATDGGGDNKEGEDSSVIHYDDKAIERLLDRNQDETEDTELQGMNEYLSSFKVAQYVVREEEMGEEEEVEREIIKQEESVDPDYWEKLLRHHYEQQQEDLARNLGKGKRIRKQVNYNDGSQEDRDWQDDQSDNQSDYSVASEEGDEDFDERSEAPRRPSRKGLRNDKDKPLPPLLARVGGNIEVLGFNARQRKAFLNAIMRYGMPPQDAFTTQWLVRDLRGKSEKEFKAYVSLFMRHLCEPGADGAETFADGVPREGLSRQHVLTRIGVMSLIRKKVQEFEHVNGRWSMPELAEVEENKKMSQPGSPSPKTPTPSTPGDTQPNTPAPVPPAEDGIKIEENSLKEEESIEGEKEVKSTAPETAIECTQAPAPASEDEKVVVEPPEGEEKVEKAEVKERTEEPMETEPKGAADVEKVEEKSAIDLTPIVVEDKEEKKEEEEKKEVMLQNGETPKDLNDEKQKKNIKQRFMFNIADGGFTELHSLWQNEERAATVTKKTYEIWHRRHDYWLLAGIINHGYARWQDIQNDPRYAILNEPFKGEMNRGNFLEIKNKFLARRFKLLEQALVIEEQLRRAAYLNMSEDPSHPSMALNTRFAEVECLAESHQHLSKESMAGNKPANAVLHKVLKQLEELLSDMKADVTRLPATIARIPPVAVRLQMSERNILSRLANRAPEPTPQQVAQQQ
Chain of Tyrosine-protein kinase BTK (Q06187 whole entry): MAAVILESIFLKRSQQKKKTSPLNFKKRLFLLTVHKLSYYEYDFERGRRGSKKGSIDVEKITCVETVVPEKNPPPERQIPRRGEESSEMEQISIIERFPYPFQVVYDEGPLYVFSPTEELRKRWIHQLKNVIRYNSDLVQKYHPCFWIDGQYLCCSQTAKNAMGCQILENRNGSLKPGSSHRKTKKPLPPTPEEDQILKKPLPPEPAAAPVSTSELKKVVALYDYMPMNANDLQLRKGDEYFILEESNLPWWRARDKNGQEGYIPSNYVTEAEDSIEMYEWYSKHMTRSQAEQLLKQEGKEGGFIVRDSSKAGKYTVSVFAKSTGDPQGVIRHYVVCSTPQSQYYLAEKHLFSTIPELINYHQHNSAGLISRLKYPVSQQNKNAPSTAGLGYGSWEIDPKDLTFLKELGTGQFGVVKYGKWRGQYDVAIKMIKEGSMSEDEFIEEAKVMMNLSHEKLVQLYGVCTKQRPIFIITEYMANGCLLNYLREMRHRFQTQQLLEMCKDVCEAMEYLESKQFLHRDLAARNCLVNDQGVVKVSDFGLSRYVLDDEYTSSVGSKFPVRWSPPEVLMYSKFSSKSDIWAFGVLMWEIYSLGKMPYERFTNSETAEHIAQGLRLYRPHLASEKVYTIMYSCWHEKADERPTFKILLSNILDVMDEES

Kd [1]	Kd [2]	Kd [3]	Kd [4]	Kd [5]	Kd [6]	Kd [7]	Kd [8]	Kd [9]	Kd (Pyridoxal kinase)	Kd [10]	Kd (Adenosine kinase)	Kd [11]	Kd [12]	Kd [13]	Structure (SMILES)
> 30 µM (inactive)	> 30 µM (inactive)	> 30 µM (inactive)	> 30 µM (inactive)	> 30 µM (inactive)	> 30 µM (inactive)	> 30 µM (inactive)	> 30 µM (inactive)	> 30 µM (inactive)	> 30 µM (inactive)	> 30 µM (inactive)	> 30 µM (inactive)	> 30 µM (inactive)	> 30 µM (inactive)	> 30 µM (inactive)	Cc1c(F)cc(C(=O)NC2CC2)cc1-c1ccc(C(=O)NCC(C)(C)C)cn1 [LOSMAPIMOD]
> 30 µM (inactive)	> 30 µM (inactive)	> 30 µM (inactive)	> 30 µM (inactive)	> 30 µM (inactive)	> 30 µM (inactive)	> 30 µM (inactive)	> 30 µM (inactive)	> 30 µM (inactive)	> 30 µM (inactive)	> 30 µM (inactive)	> 30 µM (inactive)	> 30 µM (inactive)	> 30 µM (inactive)	> 30 µM (inactive)	Cn1cc(-c2ccc(F)c(C(F)(F)F)c2)nc1C1CCN(c2ncnc3[nH]ncc23)CC1 [LY-2584702]
> 30 µM (inactive)	> 30 µM (inactive)	> 30 µM (inactive)	> 30 µM (inactive)	> 30 µM (inactive)	> 30 µM (inactive)	> 30 µM (inactive)	1.54 µM (active)	> 30 µM (inactive)	> 30 µM (inactive)	> 30 µM (inactive)	> 30 µM (inactive)	> 30 µM (inactive)	> 30 µM (inactive)	0.724 µM (active)	O=C(O)[C@]1(Cc2cccc(Nc3nccs3)n2)CC[C@@H](Oc2cccc(Cl)c2F)CC1 [MK-5108]
> 30 µM (inactive)	> 30 µM (inactive)	> 30 µM (inactive)	> 30 µM (inactive)	> 30 µM (inactive)	> 30 µM (inactive)	> 30 µM (inactive)	3.66 µM (active)	> 30 µM (inactive)	> 30 µM (inactive)	> 30 µM (inactive)	> 30 µM (inactive)	> 30 µM (inactive)	> 30 µM (inactive)	> 30 µM (inactive)	C1=C/COCc2cc(ccc2OCCN2CCCC2)Nc2nccc(n2)-c2cccc(c2)COC/1 [PACRITINIB]
> 30 µM (inactive)	> 30 µM (inactive)	> 30 µM (inactive)	> 30 µM (inactive)	> 30 µM (inactive)	> 30 µM (inactive)	> 30 µM (inactive)	> 30 µM (inactive)	> 30 µM (inactive)	> 30 µM (inactive)	> 30 µM (inactive)	> 30 µM (inactive)	> 30 µM (inactive)	> 30 µM (inactive)	> 30 µM (inactive)	CNC(=O)c1cc(Oc2ccc(NC(=O)Nc3ccc(Cl)c(C(F)(F)F)c3)c(F)c2)ccn1 [REGORAFENIB]
> 30 µM (inactive)	> 30 µM (inactive)	> 30 µM (inactive)	> 30 µM (inactive)	> 30 µM (inactive)	> 30 µM (inactive)	> 30 µM (inactive)	> 30 µM (inactive)	> 30 µM (inactive)	> 30 µM (inactive)	> 30 µM (inactive)	> 30 µM (inactive)	> 30 µM (inactive)	> 30 µM (inactive)	> 30 µM (inactive)	COc1cc(OC)c(/C=C/S(=O)(=O)Cc2ccc(OC)c(NCC(=O)O)c2)c(OC)c1 [RIGOSERTIB]
> 30 µM (inactive)	> 30 µM (inactive)	> 30 µM (inactive)	> 30 µM (inactive)	> 30 µM (inactive)	> 30 µM (inactive)	> 30 µM (inactive)	> 30 µM (inactive)	> 30 µM (inactive)	> 30 µM (inactive)	> 30 µM (inactive)	1.4 µM	> 30 µM (inactive)	> 30 µM (inactive)	> 30 µM (inactive)	CNC(=O)CN1CCC(Oc2cc3c(Nc4cccc(Cl)c4F)ncnc3cc2OC)CC1 [SAPITINIB]
> 30 µM (inactive)	> 30 µM (inactive)	> 30 µM (inactive)	> 30 µM (inactive)	> 30 µM (inactive)	> 30 µM (inactive)	> 30 µM (inactive)	> 30 µM (inactive)	> 30 µM (inactive)	> 30 µM (inactive)	> 30 µM (inactive)	> 30 µM (inactive)	> 30 µM (inactive)	> 30 µM (inactive)	> 30 µM (inactive)	CN1CCC(CNc2ccc3ncc(-c4cccc(OC(F)(F)F)c4)n3n2)CC1 [SGI-1776]

Structure (SMILES)	Kd [1]	Kd [2]	Kd [3]	Kd [4]	Kd [5]	Kd [6]	Kd [7]	Kd [8]	Kd [9]	Kd (Pyridoxal kinase)	Kd [10]	Kd (Adenosine kinase)	Kd [11]	Kd [12]	Kd [13]
Cc1ccc(-n2nc(C(C)(C)C)cc2NC(=O)NCc2cc(F)ccc2Oc2ccc3c(cnn3CCO)c2)cc1 [PEXMETINIB]	> 30 µM (inactive)	> 30 µM (inactive)	> 30 µM (inactive)	> 30 µM (inactive)	> 30 µM (inactive)	> 30 µM (inactive)	> 30 µM (inactive)	> 30 µM (inactive)	> 30 µM (inactive)	> 30 µM (inactive)	> 30 µM (inactive)	> 30 µM (inactive)	> 30 µM (inactive)	> 30 µM (inactive)	1.55 µM (active)
C=CC(=O)N1CCC(Oc2cc3c(Nc4ccc(Cl)c(Cl)c4F)ncnc3cc2OC)CC1 [POZIOTINIB]	> 30 µM (inactive)	> 30 µM (inactive)	> 30 µM (inactive)	> 30 µM (inactive)	> 30 µM (inactive)	> 30 µM (inactive)	> 30 µM (inactive)	> 30 µM (inactive)	> 30 µM (inactive)	> 30 µM (inactive)	> 30 µM (inactive)	> 30 µM (inactive)	> 30 µM (inactive)	0.003 µM (active)	> 30 µM (inactive)
